Values of other authors, collected in US20140056935A1, “PEPTIDE WHICH CAN INDUCE ANTIBODY CAPABLE OF RECOGNIZING STEREOSTRUCTURE OF HIV” (priority 2011, published 2014).

Tested on: HIV
Details: MAGI assay, Non-Patent Document 17

## enfuvirtide
  activity relative to C34 native peptide monomer in terms of EC50 values: about 10 times
